Laboratory results as given in article PMC12216759 (Nature Communications, 2025).

How the values were obtained:
Type in all cases: biochemical
[1] = target: T1, SHV-5 (Enterobacter cloacae, UniProt Q6QNE1); test: steady-state hydrolysis kinetics of purified enzyme
[2] = target: T2, SHV-5 M69I (Enterobacter cloacae, UniProt Q6QNE1, M65I); test: hydrolysis kinetics of purified enzyme
[3] = target: T2, SHV-5 M69I; test: steady-state hydrolysis kinetics of purified enzyme
[4] = target: T1, SHV-5; test: as above; remark: listed apart in the source
[5] = target: T2, SHV-5 M69I; test: as above; remark: listed apart in the source
[6] = target: T1, SHV-5; test: as above; remark: listed apart in the source

CC(C)(O/N=C(\C(=O)N[C@@H]1C(=O)N2C(C(=O)[O-])=C(C[N+]3(CCNC(=O)c4ccc(O)c(O)c4Cl)CCCC3)CS[C@H]12)c1csc(N)n1)C(=O)O [cefiderocol]
steady-state hydrolysis kinetics of purified enzyme (UV, 259 nm) [1]: 9 × 10^3 M^−1s^−1 (kcat/KM)
hydrolysis kinetics of purified enzyme (UV, 259 nm); KM too high to determine [2]: 1.2 × 10^3 M^−1s^−1 (kcat/KM)

CO/N=C(\C(=O)N[C@@H]1C(=O)N2C(C(=O)O)=C(COC(C)=O)CS[C@H]12)c1csc(N)n1 [cefotaxime]
steady-state hydrolysis kinetics of purified enzyme (UV, 264 nm) [3]: 2.3 × 10^4 M^−1s^−1 (kcat/KM)
steady-state hydrolysis kinetics of purified enzyme (UV, 264 nm) [4]: 8 × 10^5 M^−1s^−1 (kcat/KM)

CC(=O)OCC1=C(C(=O)O)N2C(=O)[C@@H](NC(=O)Cc3cccs3)[C@H]2SC1 [cephalothin]
steady-state hydrolysis kinetics of purified enzyme (UV, 262 nm) [5]: 8 × 10^4 M^−1s^−1 (kcat/KM)
steady-state hydrolysis kinetics of purified enzyme (UV, 262 nm) [6]: 1 ×10^6 M^−1s^−1 (kcat/KM)
